Patent publication US10689367B2, “Triazole pyridyl compounds as agonists of the APJ receptor” (AMGEN INC., priority 2016, dated 2020)

Target: human APJ receptor (Homo sapiens (Human), UniProt P35414)
Test: [35S]GTPγS binding assay on membranes from CHO cells stably expressing human APJ receptor
Assay type: biochemical
Conditions: membranes of CHO cells stably expressing human APJ receptor, read-out: Activity hAPJ SPA EC50 IP
Procedure, shortened: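 [35S]GTPγS binding measured on membranes from CHO cells stably expressing FLAG-tagged human APJ, with GDP, MgCl2 and NaCl levels optimized beforehand. Incubation 90 min at RT, imager read-out; EC50 from non-linear regression, averaged over several independent experiments.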

human APJ receptor, sequence (P35414 whole entry): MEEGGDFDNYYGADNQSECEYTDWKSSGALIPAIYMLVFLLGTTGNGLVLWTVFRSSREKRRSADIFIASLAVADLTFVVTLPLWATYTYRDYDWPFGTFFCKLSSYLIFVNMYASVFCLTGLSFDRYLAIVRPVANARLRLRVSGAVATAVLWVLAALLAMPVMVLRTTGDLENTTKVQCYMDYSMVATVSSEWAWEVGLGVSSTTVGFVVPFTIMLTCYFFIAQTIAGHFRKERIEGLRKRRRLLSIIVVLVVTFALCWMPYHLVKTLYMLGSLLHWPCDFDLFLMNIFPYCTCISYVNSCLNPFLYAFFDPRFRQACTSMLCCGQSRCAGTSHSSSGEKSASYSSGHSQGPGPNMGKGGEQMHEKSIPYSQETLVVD

| Compound | EC50 |
| --- | --- |
| CC[C@H](c1c(C)noc1C)n1c(NS(=O)(=O)[C@@H](C)[C@H](C)c2ncc(Cl)cn2)nnc1-c1cccc(OC)n1 (mixture of isomers) [Example 210.0, (2S,3R)-3-(5-chloro-2-pyrimidinyl)-N-(4-((1R)-1-(3,5-dimethyl-1,2-oxazol-4-yl)propyl)-5-(6-methoxy-2-pyridinyl)-4H-1,2,4-triazol-3-yl)-2-butanesulfonamide and (2S,3R)-3-(5-chloro-2-pyrimidinyl)-N-(4-((1S)-1-(3,5-dimethyl-1,2-oxazol-4-yl)propyl)-5-(6-methoxy-2-pyridinyl)-4H-1,2,4-triazol-3-yl)-2-butanesulfonamide] | 5.3 nM |
| COCCn1c(NS(=O)(=O)[C@@H](C)[C@H](OC)c2ncc(Cl)cn2)nnc1-c1ccccn1 [Example 132.0] | 150 nM |
| COc1cccc(-c2nnc(NS(=O)(=O)[C@@H](C)[C@H](C)c3ncc(Cl)cn3)n2C[C@H]2CCCO2)n1 (racemic) [Example 281.0, (2S,3R)-3-(5-chloropyrimidin-2-yl)-N-(5-(6-methoxypyridin-2-yl)-4-(((R)-tetrahydrofuran-2-yl)methyl)-4H-1,2,4-triazol-3-yl)butane-2-sulfonamide or (2S,3R)-3-(5-chloropyrimidin-2-yl)-N-(5-(6-methoxypyridin-2-yl)-4-(((S)-tetrahydrofuran-2-yl)methyl)-4H-1,2,4-triazol-3-yl)butane-2-sulfonamide] | 110 nM |
| COc1cccc(-c2nnc(NS(=O)(=O)[C@@H](C)[C@H](OC)c3ncc(Cl)cn3)n2CCC#N)n1 [Example 44.0] | 4.9 nM |
| COc1cccc(-c2nnc(NS(=O)(=O)[C@@H](C)[C@H](OC)c3ncc(Cl)cn3)n2C[C@@H]2COCCO2)n1 (racemic) [Example 304.0, (1R,2S)-N-(4-(((R)-1,4-dioxan-2-yl)methyl)-5-(6-methoxypyridin-2-yl)-4H-1,2,4-triazol-3-yl)-1-(5-chloropyrimidin-2-yl)-1-methoxypropane-2-sulfonamide or (1R,2S)-N-(4-(((S)-1,4-dioxan-2-yl)methyl)-5-(6-methoxypyridin-2-yl)-4H-1,2,4-triazol-3-yl)-1-(5-chloropyrimidin-2-yl)-1-methoxypropane-2-sulfonamide] | 20 nM |
| COCC1(n2c(NS(=O)(=O)[C@@H](C)[C@H](OC)c3ncc(Cl)cn3)nnc2-c2ccccn2)CCC1 [Example 51.0] | 1.8 nM |
| COc1cccc(-c2nnc(NS(=O)(=O)[C@@H](C)[C@@H](OC(C)C)c3ncc(C)cn3)n2[C@H](c2conc2C)C2CC2)n1 (mixture of isomers) [Example 226.0, (1S,2S)-N-(4-((R)-cyclopropyl(3-methyl-1,2-oxazol-4-yl)methyl)-5-(6-methoxy-2-pyridinyl)-4H-1,2,4-triazol-3-yl)-1-(5-methyl-2-pyrimidinyl)-1-(2-propanyloxy)-2-propanesulfonamide and (1S,2S)-N-(4-((S)-cyclopropyl(3-methyl-1,2-oxazol-4-yl)methyl)-5-(6-methoxy-2-pyridinyl)-4H-1,2,4-triazol-3-yl)-1-(5-methyl-2-pyrimidinyl)-1-(2-propanyloxy)-2-propanesulfonamide] | 0.88 nM |
| COCC(COC)n1c(NS(=O)(=O)[C@@H](C)[C@H](OC)c2cnc(C)cn2)nnc1-c1cccc(OC)n1 [Example 103.0] | 15 nM |
| COc1cccc(-c2nnc(NS(=O)(=O)[C@@H](C)[C@H](OC)c3cnc(C)cn3)n2Cc2cc(C)no2)n1 [Example 191.0, (1R,2S)-1-methoxy-N-(5-(6-methoxypyridin-2-yl)-4-((3-methylisoxazol-5-yl)methyl)-4H-1,2,4-triazol-3-yl)-1-(5-methylpyrazin-2-yl)propane-2-sulfonamide] | 390 nM |
| CO[C@H](c1ncc(Cl)cn1)[C@H](C)S(=O)(=O)Nc1nnc(-c2ccccn2)n1C [Example 130.0] | 350 nM |
| COc1cccc(-c2nnc(NS(=O)(=O)[C@@H](C)[C@H](C)c3ncc(C)cn3)n2C2CC2)n1 [Example 114.0] | 54 nM |
| CC[C@@H](C)n1c(NS(=O)(=O)[C@@H](C)[C@H](OC)c2ncc(Cl)cn2)nnc1-c1cccc(OC)n1 (single isomer, unassigned) [Example 55.0] | 0.4 nM |
| COc1cccc(-c2nnc(NS(=O)(=O)[C@@H](C)[C@H](C)c3ncc(Cl)cn3)n2Cc2cc(C)no2)n1 [Example 190.0, (2S,3R)-3-(5-chloropyrimidin-2-yl)-N-(5-(6-methoxypyridin-2-yl)-4((3-methylisoxazol-5-yl)methyl)-4H-1,2,4-triazol-3-yl)butane-2-sulfonamide] | 26 nM |
| COc1cccc(-c2nnc(NS(=O)(=O)[C@@H](C)[C@H](OC)c3cnc(C)cn3)n2Cc2cc(C(F)(F)F)no2)n1 [Example 203.0, (1R,2S)-1-methoxy-N-(5-(6-methoxy-2-pyridinyl)-4-((3-(trifluoromethyl)-1,2-oxazol-5-yl)methyl)-4H-1,2,4-triazol-3-yl)-1-(5-methyl-2-pyrazinyl)-2-propanesulfonamide] | 56 nM |
| COc1cccc(-c2nnc(NS(=O)(=O)[C@@H](C)[C@H](C)c3ncc(Cl)cn3)n2[C@H](C)c2cnn(C)c2)n1 (racemic) [Example 298.0, (2S,3R)-3-(5-chloropyrimidin-2-yl)-N-(5-(6-methoxypyridin-2-yl)-4-((R)-1-(1-methyl-1H-pyrazol-4-yl)ethyl)-4H-1,2,4-triazol-3-yl)butane-2-sulfonamide or (2S,3R)-3-(5-chloropyrimidin-2-yl)-N-(5-(6-methoxypyridin-2-yl)-4-((S)-1-(1-methyl-1H-pyrazol-4-yl)ethyl)-4H-1,2,4-triazol-3-yl)butane-2-sulfonamide] | 1.5 nM |
| COc1cccc(-c2nnc(NS(=O)(=O)[C@@H](C)[C@H](OC)c3ncc(Cl)cn3)n2[C@@H]2[C@@H](OC)CCC[C@H]2OC)n1 [Example 185.0, (1R,2S)-1-(5-chloro-2-pyrimidinyl)-N-(4-((1r,2R,6 S)-2,6-dimethoxycyclohexyl)-5-(6-methoxy-2-pyridinyl)-4H-1,2,4-triazol-3-yl)-1-methoxy-2-propanesulfonamide] | 7.2 nM |
| COc1cccc(-c2nnc(NS(=O)(=O)[C@@H](C)[C@H](OC)c3ncc(Cl)cn3)n2[C@@H](C)c2ccon2)n1 (single isomer, unassigned) [Example 264.0, (1R,2S)-1-(5-chloro-2-pyrimidinyl)-1-methoxy-N-(5-(6-methoxy-2-pyridinyl)-4-((1R)-1-(1,2-oxazol-3-yl)ethyl)-4H-1,2,4-triazol-3-yl)-2-propanesulfonamide or (1R,2S)-1-(5-chloro-2-pyrimidinyl)-1-methoxy-N-(5-(6-methoxy-2-pyridinyl)-4-((1S)-1-(1,2-oxazol-3-yl)ethyl)-4H-1,2,4-triazol-3-yl)-2-propanesulfonamide] | 2.9 nM |
| COc1cccc(-c2nnc(NS(=O)(=O)[C@@H](C)[C@H](OC)c3ncc(Cl)cn3)n2CCS(C)(=O)=O)n1 [Example 57.0, (1R,2S)-1-(5-Chloro-2-pyrimidinyl)-1-methoxy-N-(5-(6-methoxy-2-pyridinyl)-4-(2-(methylsulfonyl)ethyl)-4H-1,2,4-triazol-3-yl)-2-propanesulfonamide] | 211 nM |
| CC[C@@H](c1conc1C)n1c(NS(=O)(=O)[C@@H](C)[C@H](C)c2ncc(Cl)cn2)nnc1-c1cccc(OC)n1 (single isomer, unassigned) [Example 231.0, (2S,3R)-3-(5-chloro-2-pyrimidinyl)-N-(5-(6-methoxy-2-pyridinyl)-4-((1S)-1-(3-methyl-1,2-oxazol-4-yl)propyl)-4H-1,2,4-triazol-3-yl)-2-butanesulfonamide or (2S,3R)-3-(5-chloro-2-pyrimidinyl)-N-(5-(6-methoxy-2-pyridinyl)-4-((1R)-1-(3-methyl-1,2-oxazol-4-yl)propyl)-4H-1,2,4-triazol-3-yl)-2-butanesulfonamide] | 21 nM |
| CO[C@H](c1ncc(Cl)cn1)[C@H](C)S(=O)(=O)Nc1nnc(-c2ccncc2)n1C(C)C [Example 135.0, (1R,2S)-1-(5-chloro-2-pyrimidinyl)-1-methoxy-N-(4-(2-propanyl)-5-(4-pyridinyl)-4H-1,2,4-triazol-3-yl)-2-propanesulfonamide] | 1900 nM |
| CO[C@H](c1ncc(Cl)cn1)[C@H](C)S(=O)(=O)Nc1nnc(-c2ccccn2)n1C1(C2CC2)CC1 [Example 108.0] | 5.9 nM |
| CC[C@@H](c1c(C)noc1C)n1c(NS(=O)(=O)[C@@H](C)[C@@H](OC(C)C)c2ncc(C)cn2)nnc1-c1cccc(OC)n1 (single isomer, unassigned) [Example 220.0, (1S,2S)-N-(4-((1S)-1-(3,5-dimethyl-1,2-oxazol-4-yl)propyl)-5-(6-methoxy-2-pyridinyl)-4H-1,2,4-triazol-3-yl)-1-(5-methyl-2-pyrimidinyl)-1-(2-propanyloxy)-2-propanesulfonamide or (1S,2S)-N-(4-((1R)-1-(3,5-dimethyl-1,2-oxazol-4-yl)propyl)-5-(6-methoxy-2-pyridinyl)-4H-1,2,4-triazol-3-yl)-1-(5-methyl-2-pyrimidinyl)-1-(2-propanyloxy)-2-propanesulfonamide] | 55 nM |
| COc1cccc(-c2nnc(NS(=O)(=O)[C@@H](C)[C@H](OC)c3ncc(Cl)cn3)n2[C@H](C)[C@@H]2CCCCO2)n1 (single isomer, unassigned) [Example 318.0] | 2.4 nM |
| CC[C@H]([C@@H]1CCCCO1)n1c(NS(=O)(=O)[C@@H](C)[C@H](OC)c2ncc(Cl)cn2)nnc1-c1cccc(OC)n1 (single isomer, unassigned) [Example 328.0] | 0.064 nM |
| COc1cccc(-c2nnc(NS(=O)(=O)[C@@H](C)[C@H](C)c3ncc(Cl)cn3)n2[C@@H](C)c2ccno2)n1 (single isomer, unassigned) [Example 215.0, (2S,3R)-3-(5-chloro-2-pyrimidinyl)-N-(5-(6-methoxy-2-pyridinyl)-4-((1R)-1-(1,2-oxazol-5-yl)ethyl)-4H-1,2,4-triazol-3-yl)-2-butanesulfonamide or (2S,3R)-3-(5-chloro-2-pyrimidinyl)-N-(5-(6-methoxy-2-pyridinyl)-4-((1S)-1-(1,2-oxazol-5-yl)ethyl)-4H-1,2,4-triazol-3-yl)-2-butanesulfonamide] | 2 nM |
